Measurements published in patent publication US20090209573A1, “COMPOUNDS AND COMPOSITIONS AS HEDGEHOG PATHWAY MODULATORS” (IRM LLC, priority 2004, published 2009).

Assays:
Type in all cases: cell-based
[1] = test system: Shh-mediated pathway activation (Gli-reporter in C3H10T1/2 cells); assay: Gli-Luc Reporter Assay for Hh Pathway Inhibition; settings: C3H 10T1/2, recombinant mouse Shh protein 2 μg/mL, 48 hours, firefly luciferase normalized to Renilla, read-out: EC50 to block Shh-mediated pathway activation
Method: Gli-Luc Reporter Assay for Hh Pathway Inhibition
Mouse embryonic mesoderm fibroblasts C3H10T1/2 cells (obtained from American Type Culture Collection, ATCC, Manassas, Va.) are cultured in MEM-α medium (Gibco/Invitrogen, Carlsbad, Calif.) supplemented with 10% heat inactivated FBS (Gibco/Invitrogen, Carlsbad, Calif.), 50 unit/mL penicillin and 50 μg/mL of streptomycin (Gibco/Invitrogen, Carlsbad, Calif.) at 37° C. with 5% CO2 in air atmosphere. C3H10T1/2 cells in a 10 cm dish are co-transfected with 8 μg of Gli-reporter plasmid and 2 μg of Renilla luciferase control reporter (Promega, Madison, Wis.) with 30 μL of FuGENE6 (Roche Diagnostics, Indianapolis, Ind.) following the manufacturer's protocol. After 12 hours, cells are trypsinized and replated into a 96-well plate with MEM-α medium supplemented with 2% FBS, and treated with recombinant mouse Shh protein (expressed in E. coli, 2 μg/mL) and different concentrations of a compound of the invention. After 48 hours, the firefly luciferase and Renilla luciferase activities are assayed with the Dual-Glo™ Luciferase Assay System (Promega, Madison, Wis.). Firefly luciferase activity is normalized to Renilla luciferase activity. The EC50 is measured when the effect of the compound reduces the luminescence signal by 50%.

[2] = test system: Daoy cells (medulloblastoma cell line); assay: Cyto-toxicity Assay (Cell Titer-Glo cell viability), Daoy cells; settings: Homo sapiens, 48 h, 2 days, luminescent cell viability, read-out: EC50 against the proliferation of Daoy cells
Method: (§1) A cytotoxicity assay is performed to compare the effects of a compound of the invention on medulloblastoma cells (Daoy cells), basal cell carcinoma cells (TE354.T cells) and control cells (human normal fibroblast) according to the following procedure:
Daoy cells (medulloblastoma cell line) are purchased from ATCC, and cultured in Minimum essential medium (Eagle) with 2 mM L-glutamine and Earle's BSS adjusted to contain 1.5 g/L sodium bicarbonate, 0.1 mM non-essential amino acids, and 1.0 mM sodium pyruvate and 10% FBS at 37° C. with 5% CO2 in an air atmosphere.
(§2) Each of the above cell lines are independently seeded into 96-well plates and cultured to a density of 5,000-10,000 cells/well. A compound of the invention, at different concentrations, is added into the cell cultures. After 2 days, the cell viability is evaluated with Cell Titer-Glo Luminescent Cell Viability Assay Kit (Promega) following the manufacturer's protocol. The cell viability is directly measured by luminescent signaling and EC50s are measured when the signal is inhibited 50%.

[3] = test system: normal human dermal fibroblast cells; assay: Cyto-toxicity Assay (Cell Titer-Glo cell viability), control cells; settings: 2 days, luminescent cell viability
Method: as §1
Normal human dermal fibroblast cells (Clonetics) are cultured in Fibroblast Growth Medium (Clonetics).
as §2

CCOc1ccc(Nc2nc(-c3c(C)nc4ccccn34)cs2)cc1 [Example 1, (4-Ethoxy-phenyl)-[4-(2-methyl-imidazo[1,2-a]pyridin-3-yl)-thiazol-2-yl]-amine]
EC50 [1]: 30 nM | EC50 [2]: 30 nM | toxic effect on normal human dermal fibroblast cells (control) [3]: no toxic effect
